Measurements from patent publication US20100292472A1, “PROPHYLACTIC AND THERAPEUTIC MEDICINE FOR MALARIA” (priority 2008, published 2010).
Where two headings read alike, the source gives them in different places.

What was measured:
[1] = tested on: T. gondii strain 2F tachyzoites; assay: Test for growth inhibitory activity against T. gondii (β-gal colorimetric proliferation assay in Vero cells); assay type: cell-based, Toxoplasma gondii; settings: T. gondii 2F tachyzoites in Vero cells, 2 days
Protocol: To investigate growth inhibitory activity against T. gondii, the following various compounds were tested: inabenfide (Wako Pure Chemicals, Osaka, Japan), paclobutrazol (Wako Pure Chemicals, Osaka, Japan), uniconazole P (Wako Pure Chemicals, Osaka, Japan) and AMO-1618 (CALBIOCHEM, La Jolla, Calif.) as gibberellin inhibitors; thidiazuron (Wako Pure Chemicals, Osaka, Japan) and 6-benzyl aminopurine (Wako Pure Chemicals, Osaka, Japan) as cytokinins; and α-aminooxy acetic acid (Wako Pure Chemicals, Osaka, Japan) as an ethylene inhibitor.
For this test, T. gondii strain 2F tachyzoites were used. The strain 2F was established by transfection of the T. gondii strain RH with a β-galactosidase gene (β-gal, derived from Escherichia coli) [Reference: J. M. Dobrowolski and L. D. Sibley. Toxoplasma invasion of mammalian cells is powered by the actin cytoskeleton of the parasite. Cell 84, 933-939 (1996)]. The 2F strain was kindly provided by Dr. L. David Sibley (Washington University School of Medicine, St. Louis, Mo., US). As a host cell for the parasites, Vero cells were used. Vero cell cultures were incubated with RPMI 1640 medium containing 10% (v/v) FCS in 96-well plates for 2 days and then infected with 2.5×10^5 tachyzoites/well in RPMI 1640 medium containing 3% (v/v) FCS and various concentrations of the compounds. The tachyzoites were harvested after 2 days and the proliferation rate was monitored as a measure of β-gal activity in a colorimetric assay using chlorophenol red β-D-galactopyranoside. The proliferation rate of compound-untreated tachyzoites is set to 100% and the IC50 means the concentration of the compound that inhibits the proliferation rate by 50%.

[2] = Mice; Reported Data; cited from earlier work
[3] = Reported Data; cited from earlier work
P. falciparum strain 3D7 = assay: Test for growth inhibitory activity against P. falciparum (infected erythrocytes, Giemsa thin blood film); assay type: cell-based, Plasmodium falciparum; settings: for EC50: read-out: ED50 (50% growth inhibition concentration, EC50)
Protocol: To investigate growth inhibitory activity against a laboratory strain 3D7 of P. falciparum, the following various compounds were tested: inabenfide (Wako Pure Chemicals, Osaka, Japan), uniconazole P (Wako Pure Chemicals, Osaka, Japan), paclobutrazol (Wako Pure Chemicals, Osaka, Japan), AMO-1618 (CALBIOCHEM, La Jolla, Calif.) and FC-907 as gibberellin inhibitors; thidiazuron (Wako Pure Chemicals, Osaka, Japan), 6-benzyl aminopurine (Wako Pure Chemicals, Osaka, Japan), trans-zeatin (Wako Pure Chemicals, Osaka, Japan) and cis-zeatin (Sigma) as cytokinins; and α-aminooxy acetic acid (Wako Pure Chemicals, Osaka, Japan) as an ethylene inhibitor.
As a culture medium for the P. falciparum strain 3D7, filter-sterilized RPMI 1640 (pH 7.4) containing 10% (v/v) human serum and human erythrocytes at 3% hematocrit (the ratio of erythrocytes in a suspension thereof) was prepared. Each compound was dissolved at predetermined concentrations in an appropriate solvent (water, ethanol or DMSO) and added to wells. To each well, 3D7-infected erythrocytes were added at a starting parasitemia of 0.1% and the total volume was adjusted to 2.5 ml with the culture medium. The plates were incubated for 3 days. Control cultures were prepared so that instead of each compound solution, the equal volume of the corresponding solvent alone was contained, and similarly incubated. After the incubation, a thin blood film from each culture was prepared and stained with Giemsa (E. Merck, Germany). A total of 3000-erythrocytes/1 thin blood film were examined microscopically (immersed in oil, magnified to 1000 times), after which the malarial infection rate was determined using the equation below. The culture was maintained at 37° C. in a CO2—O2—N2 incubator (5% CO2, 5% O2, and 90% N2 atmosphere). The experiments were performed at least twice and each treatment was performed in triplicate. By comparison of the malarial infection rates obtained in control and compound-treated samples, the efficacy of each compound was assessed.
Malarial infection rate=[(number of infected erythrocytes)/(total number of examined erythrocytes)]×100
For compounds showing growth inhibitory activity, the 50% growth inhibition concentration (EC50) was calculated using the following equation.
X1: concentration of the compound showing <50% inhibition rate (μM) Y1: inhibition rate at the concentration X1 X2: concentration of the compound showing >50% inhibition rate (μM) Y2: inhibition rate at the concentration X2

[4] = P. falciparum 3D7, 3 days incubation, Table 1
[5] = Plasmodium falciparum, 3D7, Erythrocyte, 72 h

Row | SMILES | IC50 ([1]; read-out: IC50 Toxoplasma) | LD50 [2] | Mutagenesis [3] | EC50 (P. falciparum strain 3D7; [4]) | growth inhibition rate (Y1) (P. falciparum strain 3D7; concentration 10 μM (X1), FIG. 1) | growth inhibition rate (Y2) (P. falciparum strain 3D7; concentration 20 μM (X2), FIG. 1) | IC50 ([1]; Toxoplasma gondii, 48 h) | EC50 (P. falciparum strain 3D7; [5])
1 | c1ccc(CNc2ncnc3nc[nH]c23)cc1 [6-Benzylaminopurine, 6-benzyl aminopurine] | > 300 µM | 1300 mg/kg | No | 19 µM |  |  |  | 
2 | Cc1cc(OC(=O)N2CCCCC2)c(C(C)C)cc1[N+](C)(C)C.[Cl-] [AMO-1618] | > 1000 µM | 0.36 mg/kg |  | 10.3 µM | 48.9 | 85.4 |  | 
3 | CC1=CCCC(C)(C)C1C=CC(C)[N+](C)(C)C (stereo not drawn) [FC-907, N,N,N-trimethyl-1-methyl-(2′,6′,6′-trimethylcyclohex-2′-en-1′-yl) prop-2-enylammonium iodide] |  |  |  | 4.26 µM |  |  |  | 
4 | O=C(Nc1ccc(Cl)cc1C(O)c1ccccc1)c1ccncc1 (stereo not drawn) [Inabenfide, inabenfide] |  | >15000 mg/kg | No |  |  |  | 17 µM | 4.47 µM
5 | CC(C)(C)[C@@H](O)[C@@H](Cc1ccc(Cl)cc1)n1cncn1 [Paclobutrazol, paclobutrazol] |  | >5000 mg/kg |  |  |  |  | 121 µM | 27.1 µM
6 | O=C(Nc1ccccc1)Nc1cnns1 [Thidiazuron, thidiazuron] |  | >5000 mg/kg | No |  |  |  | 74.5 µM | 17.5 µM
7 | CC(C)(C)[C@H](O)/C(=C\c1ccc(Cl)cc1)n1cncn1 [Uniconazole P, uniconazole P] | 97.4 µM | 1000 mg/kg | No | 25 µM |  |  |  | 
8 | C/C(=C/CNc1ncnc2nc[nH]c12)CO [cis-Zeatin, cis-zeatin] |  |  |  | 742 µM |  |  |  | 
9 | C/C(=C\CNc1ncnc2nc[nH]c12)CO [trans-Zeatin, trans-zeatin] |  | 1300 mg/kg |  | 651 µM |  |  |  | 
10 | NOCC(=O)O [α-Aminooxy acetic Acid, α-aminooxy acetic acid] |  |  |  |  |  |  | 96.9 µM | 20.3 µM
